The IC50 is the point on the concentration scale where inhibition reaches its midpoint.

The subject of test [1] is ER-dependent transcriptional activity in T47D-KBluc cells. Put plainly: ERE-luciferase reporter in T47D-KBluc cells, agonist assessment (absence of E2). Format: cell-based, human. The procedure:
Lactols (5) and (6) were tested as a mixture of the two epimers obtained.
Chemical screening was carried out by using T47D-KBluc cells, an ER+ BC cell line that is stably transfected with the pGL2.TATA.Inr.Luc.neo containing three ER-responsive elements (ERE). The T47D-KBluc cells were maintained in standard growth media as detailed above. Dosing media was further modified by reduction of DCC-FBS to 5%. […] Chemical screening was also carried out by using the triple negative BC cell line MDA-kb2 cells that stably expresses pMMTV.neo.luc gene, an AR- and GR-responsive reporter gene. […] The T47D-KBluc cells or the MDA-kb2 cells were seeded at 100,000 cells per well in 24-well plates (Nunclon, Sigma-Aldrich, Darmstadt, Germany ) and allowed to attach overnight. Then, the media was replaced with 1 mL/well of dosing media and test compounds incubated 24 h. Then, the cells were harvested in 100 µL passive lysis buffer (Promega, Madison, WI, USA) per well. The relative light units (RLUs), which correspond to luciferase activity from each sample, were measured by using Luciferase Assay Reagent (Promega) in a Clarity luminescence microplate reader (BIOTEK, Winooski, VT, USA). The RLUs from each sample were normalized by protein concentration and converted to fold induction with respect to vehicle-treated control. […] Then, the percent of efficacy (E) of each tested compound, as compared with Emax, was calculated. […] Data are expressed as mean ± SEM of triplicate independent experiments, where each treatment was assayed in triplicate. […] Duplicate plates were dosed in parallel to control the effects of compounds on cell viability. The protein concentration was measured in cell lysate using colorimetric assay reagent (BioRad, CA, USA).

The test system of another test is T47D cells. Nature of the test: MTT cell viability, E2-depleted T47D cells. The note with it: 10 μM, 24 h, absence of E2. Format: cell-based, human. The procedure:
(§1) The effects of lignan derivatives were evaluated on human ER+ BC cells.
(§2) Cells were maintained in RPMI (Lonza, Basel, Switzerland) growth media, without phenol red, supplemented with 10% fetal bovine serum (FBS) (Lonza), 2 mM glutamine, 10 mM HEPES, 1 mM sodium pyruvate, 100 UI/mL penicillin and 100 μg/mL streptomycin. Cells were growth in a humidified incubator with 5% CO2 at 37 °C.
(§3) The cells were maintained in standard growth media as detailed above and seeded at exponential growth density (6000 cells per well) in 96-well plates (BD Falcon, France). The cells were then treated with vehicle or tests compounds (from 0.01 μM to 10 μM) for 24–72 h. The mitochondrial metabolization of the tetrazolium salt 3-(4,5-methyltiazol-2yl-)-2,5diphenyl-tetrazolium bromide] (MTT) (Applichen, Darmstadt, Germany) was used as an indicator of cell viability.
(§4) Figure 6 Effects of lignans on ER+ breast cancer cell viability. […] Then, the mitochondrial metabolization of MTT was used as an indicator of cell viability, as described in the Material and Methods. Data are expressed as mean ± SEM for at least three independent experiments, where each concentration is tested in triplicate. * p < 0.05, ** p < 0.01, and *** p < 0.001 versus VEH-treated cells.

The test system of the next test is T47D and MCF7 cells. Nature of the test: MTT cell viability, E2 non-depleted T47D and MCF7 cells, 72 h. Format: cell-based, human. The note with it: 10 μM, maximum reduction. As for the experimental part:
as §1, §2, §3, §4

A further test deals with T1, rhERα-LBD (Homo sapiens, UniProt P03372).
T1 sequence (P03372 311-547 limits assumed): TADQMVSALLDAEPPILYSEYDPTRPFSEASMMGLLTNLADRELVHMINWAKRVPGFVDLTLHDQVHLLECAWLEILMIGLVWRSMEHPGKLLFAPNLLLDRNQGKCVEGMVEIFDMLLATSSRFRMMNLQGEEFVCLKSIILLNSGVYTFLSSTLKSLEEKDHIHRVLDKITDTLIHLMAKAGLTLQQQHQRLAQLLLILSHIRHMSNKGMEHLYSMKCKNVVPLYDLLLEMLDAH
Nature of the test: LanthaScreen TR-FRET competitive binding assay. The note with it: 10-point competition curves; Mean ± SE; read-out: IC50 (inhibition of Fluormone tracer binding to rhERα). As for the experimental part: Next, the binding of lignan derivatives to the LBD of rhERα was analyzed by using time-resolved fluorescence resonance energy transfer (TR-FRET) competitive binding assay. […] The LanthaScreen^TM TR-FRET Nuclear Receptor (NR) binding assay (SelectScreen^TM Profiling Service, Life Technologies, Carlsbad, CA, USA) was used for screening of potential binding of lignan derivatives to human ERα [33]. Briefly, the kit uses the recombinant human ERα (rhERα) protein and a tight binding, selective fluorescent ligand, Fluormone^TM tracer. […] The rhERα protein and the tracer form rhERα/tracer complex, resulting in a high FP value. […] Dose-response competition curves were fitted by nonlinear regression analyses in the GraphPad software 8 (GraphPad Software, San Diego, CA, USA) to obtain IC50 values.
Data are expressed as mean ± SEM for from at least three independent experiments, where each concentration is tested in triplicate.
For orientation: TR-FRET usually uses a lanthanide donor and a delayed reading to cut background.

Test [2] concerns the target T2, ERα from rat uterine cytosol (RUC) (Rattus norvegicus, UniProt P06211).
T2 construct: from tissue
T2 sequence (P06211 1-600): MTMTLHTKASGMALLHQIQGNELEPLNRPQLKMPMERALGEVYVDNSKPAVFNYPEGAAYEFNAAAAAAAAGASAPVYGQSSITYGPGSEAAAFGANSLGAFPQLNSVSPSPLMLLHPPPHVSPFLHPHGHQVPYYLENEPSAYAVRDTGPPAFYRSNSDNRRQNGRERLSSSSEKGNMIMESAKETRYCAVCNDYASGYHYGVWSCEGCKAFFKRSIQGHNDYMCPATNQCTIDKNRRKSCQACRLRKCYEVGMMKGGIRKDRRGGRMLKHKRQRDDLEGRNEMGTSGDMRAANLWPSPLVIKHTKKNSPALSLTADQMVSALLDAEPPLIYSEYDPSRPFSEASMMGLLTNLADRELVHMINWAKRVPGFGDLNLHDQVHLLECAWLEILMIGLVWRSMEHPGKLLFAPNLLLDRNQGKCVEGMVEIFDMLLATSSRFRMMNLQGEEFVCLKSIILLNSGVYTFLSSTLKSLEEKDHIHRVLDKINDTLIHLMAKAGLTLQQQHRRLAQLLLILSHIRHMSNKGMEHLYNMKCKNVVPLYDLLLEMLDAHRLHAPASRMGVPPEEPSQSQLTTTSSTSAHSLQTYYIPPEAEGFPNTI
Nature of the test: Rat uterine cytosol competitive radioligand ([3H]E2) binding assay.

For `COc1ccc(C[C@@H](C)[C@H](C)Cc2ccc(O)c(O)c2)cc1OC` [Compound 14, 4-((2R,3R)-4-(3,4-Dimethoxyphenyl)-2,3-dimethylbutyl)benzene-1,2-diol], in test [1], the “E/Emax (%) VEH” value is reported as “weak estrogenic activity”. For the same compound, the Emax in test [1] (Homo sapiens, read-out: E/Emax (%) VEH) turned out to be 21.7 ± 4.12%. The “reduction of cell viability” value in the test with T47D cells is “reduced cell viability”; with T47D and MCF7 cells, 33.4%. Also, the results for the IC50 (on rhERα-LBD; in test [2]) were 0.16 ± 0.11 µM and 3.96 ± 0.98 µM, respectively.

(Values after publication PMC9145393, “Design, Semisynthesis, and Estrogenic Activity of Lignan Derivatives from Natural Dibenzylbutyrolactones” (Pharmaceuticals, 2022).)
